Experimental data taken from patent US4469691A, “Hexamethylenetetramine-N-acetyl-thiazolidine-4-carboxylate, a process for its preparation and a pharmaceutical composition containing it” (Ausonia Farmaceutici s.r.l., priority 1982, dated 1984).
Like-named read-outs stand apart in the source and are kept apart here.

Legend:
[1] = Acute oral toxicity in Wistar rats (Litchfield and Wilcoxon); assay type: in vivo; conditions: in vivo, rat
Pseudomonas aeruginosa = test: In vitro antibacterial activity, M.I.C., Pseudomonas aeruginosa; assay type: cell-based; conditions: 62.5 mcg/ml (EMTA; AFP 829 equimolar); of 10 strains; pH 5.5
Method: (§1) As culture medium, Mueller Hinton Agar at pH 5.5 was used. The compounds under examination were dissolved in and diluted by sterile saline; 1 ml of the diluted solutions thus obtained was poured in Petri's dishes and 19 ml of Mueller Hinton Agar were subsequently added thereto.
(§2) The inoculation of bacteria was performed using a multi point inoculator and a 18 hour growth broth culture of each of the strains under examination. With this method the bacterial inoculum is equal to about 10^5 colony-forming units (CFU) per point. Reading of the results was performed after cultivating the plates for 18 hours at 37° C.

E. coli = test: In vitro antibacterial activity, M.I.C., E. coli; assay type: cell-based; conditions: of 10 strains, pH 5.5
Method: as §1, §2

[2] = Pharmacokinetics in laboratory animals after oral administration
Staphylococcus aureus = test: In vitro antibacterial activity, M.I.C., Staphylococcus aureus; assay type: cell-based; conditions: of 15 strains, pH 5.5
Method: as §1, §2

Enterococcus = test: In vitro antibacterial activity, M.I.C., Enterococcus (Streptococcus faecalis); assay type: cell-based; conditions: of 5 strains, pH 5.5
Method: as §1, §2

[3] = tested on: 90 strains of different Gram-positive and Gram-negative bacterial species; test: In vitro antibacterial activity, all 90 strains; assay type: cell-based, Gram-positive and Gram-negative bacteria; conditions: for Antibacterial activity (in words): all microorganisms, AFP 829 versus EMTA
Method: as §1, §2

Streptococcus = test: In vitro antibacterial activity, M.I.C., Streptococcus (pyogenes); assay type: cell-based; conditions: of 15 strains, pH 5.5
Method: as §1, §2

Citrobacter spp = test: In vitro antibacterial activity, M.I.C., Citrobacter spp; assay type: cell-based; conditions: of 3 strains, pH 5.5
Method: Citrobacter spp (3 strains).
as §1, §2

Klebsiella spp = test: In vitro antibacterial activity, M.I.C., Klebsiella spp; assay type: cell-based; conditions: of 7 strains, pH 5.5
Method: Klebsiella spp (7 strains)
as §1, §2

[4] = Acute oral toxicity in Swiss mice (Litchfield and Wilcoxon); assay type: in vivo; conditions: in vivo, mouse
Serratia spp = test: In vitro antibacterial activity, M.I.C., Serratia spp; assay type: cell-based; conditions: of 5 strains, pH 5.5
Method: Serratia spp (5 strains)
as §1, §2

[5] = in vivo; cited from earlier work
Salmonella spp = test: In vitro antibacterial activity, M.I.C., Salmonella spp; assay type: cell-based; conditions: of 10 strains, pH 5.5
Method: Salmonella spp (10 strains)
as §1, §2

Proteus spp = test: In vitro antibacterial activity, M.I.C., Proteus spp; assay type: cell-based; conditions: of 10 strains, pH 5.5
Method: Proteus spp (10 strains)
as §1, §2

Wistar rats = test: Acute oral toxicity in Wistar rats (Litchfield and Wilcoxon); assay type: in vivo; conditions: rat
male Wistar rats = test: Mucosecretolytic activity in male Wistar rats (method of H. Mawatari); assay type: in vivo, rat; conditions: for % increase of sodium fluorescein compared with controls: 250 mg/Kg p.o., 10 animals; for Mucosecretolytic activity (in words): oral, rats
Method: Mucosecretolytic activity was determined in male Wistar rats after AFP 829 administration given via the oral route. The method described by H. Mawatari was used for the determination [H. Mawatari, Kagoshima Daiagaku, Igaku Zasshi 27, 561 (1976)]. A drug of known activity--carboxymethylcysteine--was used as the reference standard.

liver affections = test: Protective activity against liver affections
strain of Ps. aeruginosa = tested on: strain of Ps. aeruginosa; design: species or system Sprague Dawley rats; Ps. aeruginosa; conditions: rat, in vivo, ip
Method: Each group of animals received the substances i.p. in […] of sterile saline; the animals were placed in metabolic cages with free access to water. Urine samples were collected at the following intervals:
1 ml of nutrient broth at pH 5.5, containing approximately […] colony-forming units of a strain of Ps. aeruginosa sensitive to the action of both substances, was added to 1 ml of the urine or the standard solution of the two drugs dissolved in distilled water.
Standard and urine samples were sequentially diluted twofold by means of the same broth containing the microorganisms until a 1:2048 dilution was achieved.
After overnight incubation at 37° C. the maximum dilution (limit dilution) of the substances or samples inhibiting bacterial growth was determined.
Therefore the concentration of the substances in the urine samples was determined using the formula below: [formula]

Swiss mice = test: Acute oral toxicity in Swiss mice (Litchfield and Wilcoxon); assay type: in vivo; conditions: mouse
[6] = in vivo, po
[7] = 62.5 mcg/ml (EMTA; AFP 829 equimolar)
[8] = 125 mcg/ml (EMTA; AFP 829 equimolar)
[9] = 250 mcg/ml (EMTA; AFP 829 equimolar)
[10] = 15.6 mcg/ml (EMTA; AFP 829 equimolar)
[11] = listed as hexamethylenetetramine-N-acetyl-thiazolidine-4-carboxylate (I)
[12] = 31.2 mcg/ml (EMTA; AFP 829 equimolar)

Compound	LD50 [1]	M.I.C., cumulative number of strains inhibited (Pseudomonas aeruginosa)	M.I.C., cumulative number of strains inhibited (E. coli; [7])	M.I.C., cumulative number of strains inhibited (Staphylococcus aureus; [7])	M.I.C., cumulative number of strains inhibited (Staphylococcus aureus; [8])	M.I.C., cumulative number of strains inhibited (Enterococcus; [7])	Antibacterial activity (in words) [3]	M.I.C., cumulative number of strains inhibited (Streptococcus; [10])	M.I.C., cumulative number of strains inhibited (Streptococcus; [7])	M.I.C., cumulative number of strains inhibited (Streptococcus; [8])	M.I.C., cumulative number of strains inhibited (Citrobacter spp; [7])	M.I.C., cumulative number of strains inhibited (Klebsiella spp; [7])	LD50 [4]	M.I.C., cumulative number of strains inhibited (Serratia spp; [7])	M.I.C., cumulative number of strains inhibited (Serratia spp; [8])	M.I.C., cumulative number of strains inhibited (Salmonella spp; [7])	M.I.C., cumulative number of strains inhibited (Proteus spp; [7])	% increase of sodium fluorescein compared with controls (male Wistar rats)	other results
C1N2CN3CN1CN(C2)C3 [EMTA, hexamethylenetetramine]	1050 mg/kg	10 strains	8 strains	10 strains	14 strains	4 strains	slightly less active	7 strains	11 strains	13 strains	1 strains	6 strains	1500 mg/kg	4 strains	5 strains	9 strains	10 strains	–	M.I.C., cumulative number of strains inhibited (E. coli; [8]): 10 strains; Occurrence in urine (in words) [2]: selectively occur in the urine along with the active metabolites thereof; M.I.C., cumulative number of strains inhibited (Staphylococcus aureus; [9]): 15 strains; M.I.C., cumulative number of strains inhibited (Enterococcus; [8]): 5 strains; M.I.C., cumulative number of strains inhibited (Streptococcus; [9]): 14 strains; M.I.C., cumulative number of strains inhibited (Streptococcus; 500 mcg/ml (EMTA; AFP 829 equimolar)): 15 strains; M.I.C., cumulative number of strains inhibited (Citrobacter spp; [8]): 3 strains; M.I.C., cumulative number of strains inhibited (Klebsiella spp; [8]): 7 strains; Converted to formaldehyde in acid urine [5]: about 15%; Eliminated unchanged in the urine [5]: 90%; M.I.C., cumulative number of strains inhibited (Salmonella spp; [8]): 10 strains
C1N2CN3CN1CN(C2)C3.CC(=O)N1CSCC1C(=O)O (centres unmarked) [AFP 829, hexamethylenetetramine-N-acetyl-thiazolidine-4-carboxylate]	–	10 strains	10 strains	13 strains	15 strains	5 strains	active in comparison with all of the microorganisms used	5 strains	12 strains	15 strains	3 strains	7 strains	–	4 strains	5 strains	10 strains	10 strains	96.1%	LD50 (Wistar rats): 2100 mg/kg; Mucosecretolytic activity (in words) (male Wistar rats): powerful mucosecretolytic activity, markedly higher than the standard substance; Mucosecretolytic activity (in words) (male Wistar rats; [11]): remarkable mucosecretolytic properties; Protective activity against liver affections (in words) (liver affections): protective activity against liver affections; M.I.C., cumulative number of strains inhibited (Enterococcus; [12]): 1 strains; M.I.C.: no microorganism resistant to concentrations higher than ([3]; all microorganisms used, pH 5.5): ≤ 125 µg/mL; Antibacterial activity (in words) [3, 11]: higher antibacterial activity than hexamethylenetetramine; Concentration in urine (strain of Ps. aeruginosa; 1.5 h): 2000 mcg/ml of urine; Concentration in urine (strain of Ps. aeruginosa; 2.5 h): 4000 mcg/ml of urine; Concentration in urine (strain of Ps. aeruginosa; 4.5 h): 4000 mcg/ml of urine; Concentration in urine (strain of Ps. aeruginosa; 6.5 h): 1000 mcg/ml of urine; LD50 (Swiss mice): 1350 mg/kg; Occurrence in urine (in words) [6]: selectively occur in the urine along with the active metabolites thereof; M.I.C., cumulative number of strains inhibited (Salmonella spp; [12]): 1 strains; M.I.C., cumulative number of strains inhibited (Proteus spp; [12]): 3 strains
carboxymethylcysteine	–	–	–	–	–	–	–	–	–	–	–	–	–	–	–	–	–	33.4%	–
O=C(O)C1CSCN1 (centres unmarked) [TCA, thiazolidine-4-carboxylic acid]	800 mg/kg	–	–	–	–	–	–	–	–	–	–	–	400 mg/kg	–	–	–	–	–	–
